Series [1] deals with NS3 (Hepatitis C virus, UniProt A3EZJ3). The series is described as follows: Binding affinity at HCV NS3 protease. Further details: species or system Hepatitis C virus subtype 1b.
The nature of series [2]: AUC in rat. The series is classed as ADME, organism-based. To be noted: plasma.
Series [3] is described as follows: AUC(0-6h) in rat at 10 mg, po. It is filed as ADME, organism-based. The arrangement: time < 6 hr, dose 10 mg, route oral. To be noted: plasma.
Series [4] is described as follows: AUC in rat at 10 mg/kg, po. The series is classed as ADME, organism-based. The arrangement: dose 10 mg/kg, route oral. To be noted: plasma.
Series [5] deals with Huh-5-2. The series is described as follows: Cytotoxicity against hepatoma cell line containing HCV replicon measured as change in GAPDH RNA level. It is filed as functional, Homo sapiens.
The nature of series [6]: Bioavailability in rat at 10 mg/kg, po. The series is classed as ADME, organism-based. To be noted: in vivo.
Series [7] is described as follows: Selectivity for human neutrophil elastase (HNE) over HCV NS3 protease.
Series [8] concerns Hepatocyte. The series is described as follows: Inhibition of HCV replication in hepatocytes measured by cellular replicon assay. The series is classed as functional. The following applies: Hepatitis C virus. (In general: Replicon systems follow genome replication, usually without infectious particles.)
A short description of series [9]: AUC in monkey at 3 mg/kg, po. To be noted: rhesus monkey, plasma.
Series [10] can be described thus: Bioavailability in monkey at 3 mg/kg, po. To be noted: rhesus monkey, in vivo.
The nature of series [11]: AUC in dog at 3 mg/kg, po. It is filed as ADME, organism-based, Canis lupus familiaris. The arrangement: dose 3 mg/kg, route oral. The following applies: plasma.
A short description of series [12]: Bioavailability in dog at 3 mg/kg, po. It is filed as ADME, organism-based, Canis lupus familiaris. The following applies: in vivo.
The nature of series [13]: Bioavailability in mouse. The following applies: in vivo. The series is classed as ADME, organism-based.
A short description of series [14]: Ratio of drug level in liver against plasma in rat. The series is classed as ADME, organism-based.
Series [15] can be described thus: Bioavailability in dog at 2 mg/kg, po. The series is classed as ADME, organism-based, Canis lupus familiaris. To be noted: in vivo.
The nature of series [16]: AUC in dog at 2 mg/kg, po. The series is classed as ADME, organism-based, Canis lupus familiaris. Further details: dose 2 mg/kg, route oral. The following applies: plasma.
Series [17] in a line: AUC in monkey at 2 mg/kg, po. To be noted: rhesus monkey, plasma.
Series [18] in a line: Bioavailability in monkey at 2 mg/kg, po. To be noted: rhesus monkey, in vivo.

Chain of NS3 (A3EZJ3 whole entry): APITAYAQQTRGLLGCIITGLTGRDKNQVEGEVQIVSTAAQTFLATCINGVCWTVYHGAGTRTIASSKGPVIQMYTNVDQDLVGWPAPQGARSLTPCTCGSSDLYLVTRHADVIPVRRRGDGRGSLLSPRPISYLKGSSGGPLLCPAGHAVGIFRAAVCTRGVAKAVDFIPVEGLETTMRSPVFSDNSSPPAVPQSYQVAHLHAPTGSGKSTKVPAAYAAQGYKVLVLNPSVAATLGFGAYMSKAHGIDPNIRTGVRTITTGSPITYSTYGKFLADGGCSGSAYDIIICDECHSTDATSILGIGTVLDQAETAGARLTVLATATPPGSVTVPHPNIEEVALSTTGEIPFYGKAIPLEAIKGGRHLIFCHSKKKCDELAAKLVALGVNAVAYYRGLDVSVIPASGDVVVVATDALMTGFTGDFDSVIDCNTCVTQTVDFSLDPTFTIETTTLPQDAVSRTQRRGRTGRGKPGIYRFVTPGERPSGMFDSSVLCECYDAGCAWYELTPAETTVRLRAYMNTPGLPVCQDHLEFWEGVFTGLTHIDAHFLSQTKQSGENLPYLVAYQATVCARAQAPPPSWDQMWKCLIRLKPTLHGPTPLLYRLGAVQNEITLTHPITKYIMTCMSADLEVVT

A word on the Ki: it is a measure of affinity in units of concentration, obtained from inhibition or displacement. Usually AUC stands for concentration integrated over time. As to `CCCC(NC(=O)[C@@H]1[C@@H]2[C@H](CN1C(=O)[C@@H](NC(=O)OC(C)(C)C)C1CCCCC1)C2(C)C)C(=O)C(=O)NCC(=O)N[C@H](C)C1CCCCC1` (stereo partly specified), affinity in series [1] was put at a Ki of 100 nM. Besides, in series [2], the AUC was 0.09 µM·h.

In general, AUC(0-t) refers to exposure summed from dosing to a finite time, without extrapolation to infinity. `C=CCNC(=O)C(=O)C(CCC)NC(=O)[C@@H]1[C@@H]2[C@H](CN1C(=O)[C@@H](NC(=O)OC(C)(C)C)C1CCCCC1)C2(C)C` (stereo partly specified) returned a Ki in series [1] of 280 nM. This molecule came in with an AUC(0-t) at 6 h in series [3] of 26 µM·h.

The bioavailability is dose-corrected exposure relative to a reference, in per cent. The EC90 is the point of the concentration-response curve where the effect stands at 90%. With `CC(C)NC(=O)N[C@H](C(=O)N1C[C@H]2[C@@H]([C@H]1C(=O)NC(CC1CCC1)C(=O)C(N)=O)C2(C)C)C(C)(C)C` (stereo partly specified), the area under the curve (AUC) in series [4] amounted to 0.83 µM·h. The molecule also yielded an Activity in series [5] greater than 5 µM. In series [6], this molecule displayed a bioavailability of 13%. Affinity in series [1] was put at a Ki of 16 nM. In addition, in [7], the Selectivity ratio stood at 4200. The EC90 in series [8] worked out at 730 nM.

`CC(C)(C)OC(=O)N[C@H](C(=O)N1C[C@H]2[C@@H]([C@H]1C(=O)NC(CC1CCC1)C(=O)C(N)=O)C2(C)C)C1CCCCC1` (stereo partly specified): the results for the AUC in series [4] and in series [9] were 1.5 µM·h and 0.11 µM·h, respectively. In addition, in series [5], the Activity is greater than 5 µM. The bioavailability was 28% in series [6] and 1% in [10]. The molecule further displayed a Ki in series [1] of 8 nM. For the same molecule, the Selectivity ratio in series [7] worked out at 138. In addition, in series [8], the 90% effect level (EC90) was put at 700 nM.

Molecule `CCCC(NC(=O)[C@@H]1[C@@H]2[C@H](CN1C(=O)[C@@H](NC(=O)OC(C)(C)C)C1CCCCC1)C2(C)C)C(=O)C(=O)NCC(=O)NCc1cccs1` (stereo partly specified) returned a Ki in series [1] of 60 nM. The exposure (AUC) in [2] was found to be 0.73 µM·h.

As for `CCCC(NC(=O)[C@@H]1[C@@H]2[C@H](CN1C(=O)[C@@H](NC(=O)OC(C)(C)C)C1CCCCC1)C2(C)C)C(=O)C(=O)NCC(=O)NCc1ccccc1` (stereo partly specified), the affinity in [1] corresponds to a Ki of 56 nM. The AUC in [2] came to 1.27 µM·h.

The term Kp denotes tissue or fluid exposure divided by exposure in the circulation. For the molecule `CC(C)(C)NC(=O)N[C@H](C(=O)N1C[C@H]2[C@@H]([C@H]1C(=O)NC(CC1CCC1)C(=O)C(N)=O)C2(C)C)C(C)(C)C` (stereo partly specified) [BOCEPREVIR], the exposure (AUC) was 1.52 µM·h in [4], 3.08 µM·h in series [11] and 0.12 µM·h in [9]. Besides, the Activity in series [5] was greater than 5 µM. Also, the bioavailability in series [6] was determined as 26%; in series [12], 30%; in [13] it was 34%; in series [10], 4%. Further, in [14], the Kp amounted to 30. The molecule also came in with a Ki in series [1] of 14 nM. Also, the Selectivity ratio in series [7] is 2200. Further, the EC90 in series [8] amounted to 350 nM.

As to `CCCC(NC(=O)[C@@H]1[C@@H]2[C@H](CN1C(=O)[C@@H](NC(=O)OC(C)(C)C)C1CCCCC1)C2(C)C)C(=O)C(=O)NC` (stereo partly specified), the affinity in [1], expressed as Ki, was 1500 nM. Further, the AUC(0-t) at 6 h in [3] came to 13.4 µM·h.

`CC(C)(C)NC(=O)N[C@H](C(=O)N1C[C@H]2[C@@H]([C@H]1C(=O)NC(CC1CC1)C(=O)C(N)=O)C2(C)C)C(C)(C)C` (stereo partly specified): the AUC in [4] was 1 µM·h; in [16], 1.6 µM·h; in series [17], 0.05 µM·h. The figures for the bioavailability in series [15], in series [6] and in series [18] were 36%, 16% and 2%, respectively. The Activity in series [5] is greater than 5 µM. In [1], the Ki amounted to 13 nM. For the same molecule, the Selectivity ratio in series [7] was determined as 369. Also, the 90% effect level in series [8] (EC90) was put at 400 nM.

As for `CC(C)(C)OC(=O)N[C@H](C(=O)N1C[C@H]2[C@@H](C1C(=O)NC(CC(F)(F)F)C(=O)C(N)=O)C2(C)C)C1CCCCC1` (stereo partly specified), the Activity in [5] was greater than 5 µM. In series [1], this molecule displayed a Ki of 50 nM. In [7], the Selectivity ratio was 2. This molecule showed a concentration for an effect of 90% (EC90) in [8] of 700 nM.

Regarding `CC(C)(C)OC(=O)N[C@H](C(=O)N1C[C@H]2[C@@H]([C@H]1C(=O)NC(CC1CC1)C(=O)C(N)=O)C2(C)C)C1CCCCC1` (stereo partly specified), in series [4], the AUC turned out to be 1.3 µM·h. The Activity in [5] was greater than 5 µM. This molecule gave a bioavailability in [6] of 3.4%. This molecule showed an inhibition constant (Ki) in [1] of 25 nM. In [7], the Selectivity ratio came to 23. In series [8], it took 400 nM to reach the 90% level (EC90).

Take `CN(C(=O)N[C@H](C(=O)N1C[C@H]2[C@@H]([C@H]1C(=O)NC(CC1CC1)C(=O)C(N)=O)C2(C)C)C(C)(C)C)C(C)(C)C` (stereo partly specified): the Activity in [5] was greater than 5 µM. In series [1], this molecule yielded a Ki of 60 nM. Also, in series [7], the Selectivity ratio was 45. Also, the concentration for an effect of 90% (EC90) in series [8] was greater than 1000 nM.

`CC(C)[C@H](C)OC(=O)N[C@H](C(=O)N1C[C@H]2[C@@H]([C@H]1C(=O)NC(CC1CCC1)C(=O)C(N)=O)C2(C)C)C(C)(C)C` (stereo partly specified): the Activity in [5] is greater than 5 µM. This molecule also gave an inhibitory constant (Ki) in series [1] of 36 nM. Moreover, the Selectivity ratio in [7] stood at 3800. This molecule showed a concentration for an effect of 90% (EC90) in [8] of 700 nM.

In [5], `CC(C)(C)OC(=O)N[C@H](C(=O)N1C[C@H]2[C@@H]([C@H]1C(=O)NC(CC1CC1)C(=O)C(N)=O)C2(C)C)C1Cc2ccccc2C1` (stereo partly specified) gave an Activity greater than 5 µM. Besides, the Ki in [1] was 82 nM. Moreover, the Selectivity ratio in series [7] was 49. In series [8], the EC90 was greater than 1000 nM.

The molecule `CCCC(NC(=O)[C@@H]1[C@@H]2[C@H](CN1C(=O)[C@@H](NC(=O)OC(C)(C)C)C1CCCCC1)C2(C)C)C(=O)C(N)=O` (stereo partly specified) registered an inhibition constant Ki in series [1] of 100 nM. Besides, the Selectivity ratio in [7] was 3. In addition, the AUC(0-t) at 6 h in [3] turned out to be 2.52 µM·h.

(Values after ChEMBL document CHEMBL1137396, “Discovery of (1R,5S)-N-[3-amino-1-(cyclobutylmethyl)-2,3-dioxopropyl]- 3-[2(S)-[[[(1,1-dimethylethyl)amino]carbonyl]amino]-3,3-dimethyl-1-oxobutyl]- 6,6-dimethyl-3-azabicyclo[3.1.0]hexan-2(S)-carboxamide (SCH 503034), a selective, potent, orally bioavailable hepatitis C virus NS3 protease …” (J Med Chem, 2006).)
